One assay deals with IDH1 R132H (Homo sapiens, UniProt O75874, R132H). The experiment in a line: IDH1 R132H enzymatic assay (NADPH depletion coupled to diaphorase/resazurin). The class given is biochemical. The following applies: enzymatic inhibition, IDH1 R132H. In general terms: Resazurin is reduced to fluorescent resorufin, in cell work by metabolically active cells.
In the next assay the target is IDH1 R132C (Homo sapiens, UniProt O75874, R132C). The experiment in a line: IDH1 R132C enzymatic assay (NADPH depletion coupled to diaphorase/resazurin). It counts as biochemical. To be noted: enzymatic inhibition, IDH1 R132C. A digest of the protocol:
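NADPH depletion, read via diaphorase/resazurin coupling, after adding substrate at 0.6 mM α-KG and 0.012 mM NADPH. Beforehand, 0.00032 mg/mL enzyme sat with compound 30 min at room temperature in pH 6.5 potassium phosphate buffer with MgCl2, glycerol and BSA.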

Our source for the IC50 values is patent US10703746B2, “Mutant IDH1 inhibitors useful for treating cancer” (THE UNITED STATES OF AMERICA, AS REPRESENTED BY THE …, priority 2014, dated 2020).

Sequence of IDH1 R132H (O75874 whole entry R132H): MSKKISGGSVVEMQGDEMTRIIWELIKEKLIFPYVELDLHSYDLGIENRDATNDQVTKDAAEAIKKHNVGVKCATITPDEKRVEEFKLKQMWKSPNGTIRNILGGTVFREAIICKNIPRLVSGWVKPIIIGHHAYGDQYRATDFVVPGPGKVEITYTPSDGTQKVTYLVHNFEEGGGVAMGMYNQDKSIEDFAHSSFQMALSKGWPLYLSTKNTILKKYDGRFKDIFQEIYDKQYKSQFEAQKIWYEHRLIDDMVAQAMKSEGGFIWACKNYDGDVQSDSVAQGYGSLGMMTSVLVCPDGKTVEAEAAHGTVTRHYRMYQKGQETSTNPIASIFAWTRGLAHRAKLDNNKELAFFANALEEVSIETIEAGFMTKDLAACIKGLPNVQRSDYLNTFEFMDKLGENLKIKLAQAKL
Sequence of IDH1 R132C (O75874 whole entry R132C): as the sequence (O75874 whole entry R132H) above, with H132C counted along it

For `CCc1cccc(CC)c1-n1c(CC(C)C)c(C(=O)N2CCNCC2)cc(-c2nc(-c3ccc(C(=O)N(C)C)cc3)c(C)s2)c1=O` [Compound 419], the IC50 at IDH1 R132H and on IDH1 R132C was 1 to 5 µM throughout.

With `CCOc1ccc(C)cc1-n1c(C=C(C)C)c(C(=O)N2CCNCC2)cc(-c2nc(-c3ccc(C(F)(F)F)nc3)cs2)c1=O` [Compound 420], the IC50 at IDH1 R132H and on IDH1 R132C was under 0.3 µM throughout.

Regarding `COc1ccc(C(N)=O)cc1-n1c2c(cc(-c3nc(-c4ccc(Cl)cc4)cs3)c1=O)C(=O)CC(C)(C)C2` [Compound 423], the 50% inhibitory concentration (IC50) on IDH1 R132H and on IDH1 R132C was 1 to 5 µM each time.

In the case of `CCc1ccc(F)cc1-n1c(C=C(C)C)c(C(=O)N2CCNCC2)cc(-c2nc(-c3ccc(C(F)(F)F)nc3)cs2)c1=O` [Compound 424], the IC50 (commonly the point on the concentration scale where inhibition reaches its midpoint) on IDH1 R132H was under 0.3 µM; against IDH1 R132C it was 0.3 to 1 µM.

Take `CCc1cccc(CC)c1-n1c(C=C(C)C)c(C(=O)N2CCN[C@@H](C)C2)cc(-c2nc(-c3ccc(C(F)(F)F)cc3)cs2)c1=O` [Compound 425]: the IC50 against IDH1 R132H and against IDH1 R132C was under 0.3 µM throughout.

Regarding `CCc1cccc(CC)c1-n1c(C=C(C)C)c(C(=O)N2CCNC(C(N)=O)C2)cc(-c2nc(-c3ccc(Cl)cc3)cs2)c1=O` (stereo not shown) [Compound 426], the IC50 against IDH1 R132H and on IDH1 R132C was under 0.3 µM in each case.

Turning to `CCc1ncc(OC)cc1-n1c(C=C(C)C)c(C(=O)N2CCNCC2)cc(-c2nc(-c3ccc(C(F)F)cc3)cs2)c1=O` [Compound 427], the results for the IC50 at IDH1 R132H and at IDH1 R132C were under 0.3 µM and 0.3 to 1 µM, respectively.

For `Cc1cccc(CO)c1-n1c2c(cc(-c3nc(-c4ccc(Cl)cc4)cs3)c1=O)C(=O)CCC2` [Compound 428], the IC50 against IDH1 R132H and on IDH1 R132C was 1 to 5 µM each time.

As for `CC1(C)CC(=O)c2cc(-c3nc(-c4ccc(Cl)cc4)cs3)c(=O)n(-c3cscc3C(N)=O)c2C1` [Compound 429], the IC50 at IDH1 R132H and on IDH1 R132C was 5 to 20 µM throughout.

As for `CCc1cccc(CC)c1-n1c(CC(C)C)c(C(=O)N2CCNCC2)cc(-c2nc(-c3ccc(Cl)cc3)c(C(F)(F)F)s2)c1=O` [Compound 430], the half-maximal inhibitory concentration (IC50) against IDH1 R132H and against IDH1 R132C was 0.3 to 1 µM each time.

Consider `CCc1cccc(CC)c1-n1c(C=C(C)C)c(C(=O)N2CCNC3(CC3)C2)cc(-c2nc(-c3ccc(Cl)cc3)cs2)c1=O` [Compound 431], for which the concentration for half-maximal inhibition (IC50) at IDH1 R132H and on IDH1 R132C was under 0.3 µM each time.

For the compound `CCc1cccc(C)c1-n1c(C)c(C(=O)N2CCNCC2)cc(-c2nc(-c3ccc(Cl)cc3)cs2)c1=O` [Compound 432], the IC50 was 0.3 to 1 µM on IDH1 R132H and 1 to 5 µM on IDH1 R132C.

Regarding `CCc1cccc(CC)c1-n1c(CC2CCC2)c(C(=O)N2CCNCC2)cc(-c2nc(-c3ccc(Cl)cc3)cs2)c1=O` [Compound 433], the IC50 at IDH1 R132H and at IDH1 R132C was under 0.3 µM each time.

For `CCc1cccc(CC)c1-n1c(C2CCC2)c(C(=O)N2CCNCC2)cc(-c2nc(-c3ccc(Cl)cc3)cs2)c1=O` [Compound 434], the IC50 was 0.3 to 1 µM on IDH1 R132H and under 0.3 µM at IDH1 R132C.

For the compound `CCc1cccc(CC)c1-n1c(C=C(C)C)c(C(=O)N2CCNCC2)cc(-c2nn(-c3ccc(Cl)cc3)cc2C(F)(F)F)c1=O` [Compound 435], the concentration for half-maximal inhibition (IC50) fell in the range of 1 to 5 µM against IDH1 R132H and 5 to 20 µM against IDH1 R132C.

With `COc1ccncc1-n1c2c(cc(-c3nc(-c4ccc(Cl)cc4)cs3)c1=O)C(=O)CC(C)(C)C2` [Compound 436], the half-maximal inhibitory concentration (IC50) is over 20 µM on IDH1 R132H and 5 to 20 µM at IDH1 R132C.

Consider `CC(C)=Cc1c(C(=O)N2CCNCC2)cc(-c2nc(-c3ccc(Cl)cc3)cs2)c(=O)n1-c1ccccc1C` [Compound 437], for which the figures for the half-maximal inhibitory concentration (IC50) against IDH1 R132H and on IDH1 R132C were under 0.3 µM and 0.3 to 1 µM, respectively.

Turning to `COc1ccc(C)cc1-n1c(C=C(C)C)c(C(=O)N2CCNCC2)cc(-c2nc(-c3ccc(Cl)cc3)cs2)c1=O` [Compound 438], the concentration for half-maximal inhibition (IC50) on IDH1 R132H and at IDH1 R132C was under 0.3 µM throughout.

As to `Cc1nonc1-n1c2c(cc(-c3nc(-c4ccc(Cl)cc4)cs3)c1=O)C(=O)CC(C)(C)C2` [Compound 439], the concentration for half-maximal inhibition (IC50) on IDH1 R132H is over 20 µM; against IDH1 R132C, 1 to 5 µM.

As for `CN1CCN(Cc2ccccc2-n2c3c(cc(-c4nc(-c5ccc(Cl)cc5)cs4)c2=O)C(=O)CCC3)CC1` [Compound 440], the 50% inhibitory concentration (IC50) at IDH1 R132H and against IDH1 R132C was 5 to 20 µM in each case.

Regarding `CC1(C)CC(=O)c2cc(-c3nc(-c4ccc(Cl)cc4)cs3)c(=O)n(-c3ccc(Cl)cc3Cl)c2C1` [Compound 441], the 50% inhibitory concentration (IC50) at IDH1 R132H is over 20 µM; against IDH1 R132C, 5 to 20 µM.

For the compound `CCc1cccc(CC)c1-n1c(C=C(C)C)c(C(=O)N2CCNCC23COC3)cc(-c2nc(-c3ccc(Cl)cc3)cs2)c1=O` [Compound 443], the concentration for half-maximal inhibition (IC50) against IDH1 R132H is 0.3 to 1 µM; at IDH1 R132C, under 0.3 µM.

In the case of `CCOc1cccc(OCC)c1-n1c2c(cc(-c3nc(-c4ccc(Cl)cc4)cs3)c1=O)C(=O)CCC2` [Compound 444], the concentration for half-maximal inhibition (IC50) on IDH1 R132H and on IDH1 R132C was 0.3 to 1 µM in each case.

With `CN1CCN(Cc2cccc(-n3c4c(cc(-c5nc(-c6ccc(Cl)cc6)cs5)c3=O)C(=O)CC(C)(C)C4)c2)CC1` [Compound 445], the IC50 on IDH1 R132H and at IDH1 R132C was 5 to 20 µM in each case.

With `CCc1cccc(CC)c1-n1c(C2CCOCC2)c(C(=O)N2CCNCC2)cc(-c2nc(-c3ccc(Cl)cc3)cs2)c1=O` [Compound 446], the figures for the IC50 at IDH1 R132H and on IDH1 R132C were 1 to 5 µM and 0.3 to 1 µM, respectively.

`CCc1cccc(CC)c1-n1c(C=C(C)C)c(C(=O)N2C[C@H]3C[C@@H]2CN3)cc(-c2nc(-c3ccc(Cl)cc3)cs2)c1=O` [Compound 447]: the IC50 on IDH1 R132H and against IDH1 R132C was under 0.3 µM throughout.

For the compound `CCc1cccc(Cl)c1-n1c(C=C(C)C)c(C(=O)N2CCNCC2)cc(-c2nc(-c3ccc(Cl)cc3)cs2)c1=O` [Compound 448], the IC50 against IDH1 R132H and at IDH1 R132C was under 0.3 µM each time.

As for `CC(C)=Cc1c(C(=O)N2CCNCC2)cc(-c2nc(-c3ccc(Cl)cc3)cs2)c(=O)n1-c1ccccc1Cl` [Compound 449], the IC50 at IDH1 R132H and at IDH1 R132C was under 0.3 µM throughout.

On to `Cc1ccc(-n2c3c(cc(-c4nc(-c5ccc(Cl)cc5)cs4)c2=O)C(=O)CCC3)c(C)c1` [Compound 450], for which the IC50 against IDH1 R132H and against IDH1 R132C was over 20 µM in each case.

`O=C1CCCc2c1cc(-c1nc(-c3ccc(Cl)cc3)cs1)c(=O)n2-c1ccccc1C(F)(F)F` [Compound 451]: the IC50 on IDH1 R132H lay within 0.3 to 1 µM; against IDH1 R132C, 1 to 5 µM.

On to `CCc1cccc(CC)c1-n1c(CC(C)C)c(C(=O)N2CCNCC2)cc(-n2ccc(-c3ccc(Cl)cc3)n2)c1=O` [Compound 452], for which the IC50 against IDH1 R132H and against IDH1 R132C was under 0.3 µM in each case.

`CCc1cccc(CC)c1-n1c(CC(C)C)c(C(=O)N2CCNCC2)cc(-c2nc(-c3ccc(Cl)cc3)c(C(=O)NC)s2)c1=O` [Compound 454]: the results for the concentration for half-maximal inhibition (IC50) against IDH1 R132H and on IDH1 R132C were 0.3 to 1 µM and 1 to 5 µM, respectively.

For `CCc1cccc(CC)c1-n1c(CC2CCCCO2)c(C(=O)N2CCNCC2)cc(-c2nc(-c3ccc(Cl)cc3)cs2)c1=O` (stereo not shown) [Compound 455], the 50% inhibitory concentration (IC50) on IDH1 R132H is 1 to 5 µM; on IDH1 R132C, 0.3 to 1 µM.

Turning to `CCc1cccc(CC)c1-n1c(C(CC)OC)c(C(=O)N2CCNCC2)cc(-c2nc(-c3ccc(Cl)cc3)cs2)c1=O` (stereo not shown) [Compound 456], the 50% inhibitory concentration (IC50) at IDH1 R132H and on IDH1 R132C was 0.3 to 1 µM each time.

As for `CCc1cccc(CC)c1-n1c(C2CCCO2)c(C(=O)N2CCNCC2)cc(-c2nc(-c3ccc(Cl)cc3)cs2)c1=O` (stereo not shown) [Compound 457], the concentration for half-maximal inhibition (IC50) against IDH1 R132H and against IDH1 R132C was under 0.3 µM each time.
